In ChEMBL document CHEMBL5137013 (Eur J Med Chem, 2022):
Activity calls are given as the source filed them. The rule behind the calls is not given here.

Tests used:
HT-29 [1] = assay: Cell cycle arrest in human HT-29 cells assessed as effect on cdc2 expression at 25 to 100 nM measured after 24 hrs by Western blot analysis; format: functional, cell-based; details: dose 25-100 nM
HT-29 [2] = assay: Induction of apoptosis in human HT-29 cells assessed as increase in cleaved caspase-3 expression at 25 to 100 nM measured after 24 hrs by Western blot analysis; format: functional, cell-based; details: dose 25-100 nM
[3] = Toxicity in human HT-29 cells xenografted BALB/c nude mouse assessed as effect on liver at 5 to 10 mg/kg, ip administered as 2 days interval for 3 weeks and measured 3 weeks post-initial dosing by H and E staining based histopathological analysis; format: organism-based; details: in vivo, 504 h, dose 5-10 mg/kg
HT-29 [4] = assay: Induction of apoptosis in human HT-29 cells assessed as down regulation of phosphorylated histone H3 expression at 25 to 100 nM measured after 24 hrs by Western blot analysis; format: functional, cell-based; details: dose 25-100 nM
[5] = Cytotoxicity against human MCF7/TxR cells assessed as reduction in cell viability measured after 24 hrs by MTT assay; format: functional, cell-based
Tubulin (Homo sapiens) [6] = biological target: T1, Tubulin (Homo sapiens) (UniProt P68371+Q9H4B7+P0DPH7+P68366+Q13509+Q71U36+P04350+Q3ZCM7+P07437+P68363+Q9BQE3+Q6PEY2+Q13885+Q9BVA1+Q9BUF5); assay: Displacement of [3H] colchicine from tubulin (unknown origin) at 5 uM measured after 2 hrs by scintillation counting analysis relative to control; format: protein-complex assay
Tubulin (Homo sapiens) [7] = biological target: T1, Tubulin (Homo sapiens); assay: Inhibition of tubulin polymerization in human HT-29 cells assessed as up regulation of acetylated-alpha-tubulin expression at 25 to 100 nM measured after 24 hrs by Western blot analysis; format: cell-based; details: dose 25-100 nM
HT-29 [8] = assay: Cell cycle arrest in human HT-29 cells assessed as effect on cyclin B1 expression at 25 to 100 nM measured after 24 hrs by Western blot analysis; format: functional, cell-based; details: dose 25-100 nM
HT-29 [9] = assay: Induction of mitochondrial dysfunction in human HT-29 cells assessed as increase in green fluorescence intensity measured after 24 hrs by JC-1 staining based JC-1 dye based confocal laser scanning microscopy; format: functional, cell-based; details: dose 25-100 nM, DDE = dose-dependent effect
MDA-MB-231 = assay: Cytotoxicity against human MDA-MB-231 cells assessed as reduction in cell viability measured after 24 hrs by MTT assay; format: functional, cell-based; details: MDA-MB-231, 24 h
A549 [10] = assay: Antimigratory activity against human A549 cells assessed as reduction in scratch wound recovery measured after 24 hrs by scratch wound healing assay; format: functional, cell-based; details: dose 15-250 nM, DDE = dose-dependent effect
HT-29 [11] = assay: Induction of apoptosis in human HT-29 cells assessed as up regulation of Bax expression at 25 to 100 nM measured after 24 hrs by Western blot analysis; format: functional, cell-based; details: dose 25-100 nM
[12] = Resistance index, ratio of IC50 for human MCF7/TxR cells to IC50 for human MCF7 cells; format: functional
HT-29 [13] = assay: Inhibition of colony formation in human HT-29 cells at 100 nM measured after 24 hrs by crystal violet staining based assay; format: functional
[14] = Half-life in Sprague-Dawley rat at 10 mg/kg, iv by HPLC-MS/MS analysis; format: ADME, organism-based; details: in vivo
HT-29 [15] = assay: Induction of ROS generation in human HT-29 cells measured after 24 hrs by DCFH-DA dye based confocal laser scanning microscopy; format: functional, cell-based; details: dose 25-100 nM, DDE = dose-dependent effect
Tubulin (Homo sapiens) [16] = biological target: T1, Tubulin (Homo sapiens); assay: Inhibition of tubulin polymerization in human HT-29 cells assessed as up regulation of detyrosinated-alpha-tubulin expression at 25 to 100 nM measured after 24 hrs by Western blot analysis; format: cell-based; details: dose 25-100 nM
[17] = Toxicity in human HT-29 cells xenografted BALB/c nude mouse assessed as effect on lung at 5 to 10 mg/kg, ip administered as 2 days interval for 3 weeks and measured 3 weeks post-initial dosing by H and E staining based histopathological analysis; format: organism-based; details: in vivo, 504 h, dose 5-10 mg/kg
[18] = Toxicity in human HT-29 cells xenografted BALB/c nude mouse assessed as effect on kidney at 5 to 10 mg/kg, ip administered as 2 days interval for 3 weeks and measured 3 weeks post-initial dosing by H and E staining based histopathological analysis; format: organism-based; details: in vivo, 504 h, dose 5-10 mg/kg
[19] = Toxicity in human HT-29 cells xenografted BALB/c nude mouse assessed as effect on spleen at 5 to 10 mg/kg, ip administered as 2 days interval for 3 weeks and measured 3 weeks post-initial dosing by H and E staining based histopathological analysis; format: organism-based; details: in vivo, 504 h, dose 5-10 mg/kg
HT-29 [20] = assay: Cell cycle arrest in human HT-29 cells assessed as increase in cell accumulation at G2/M phase measured after 24 hrs by propidium iodide staining based flow cytometry; format: functional; details: dose 12.5-100 nM, DDE = dose-dependent effect
[21] = AUC in Sprague-Dawley rat at 10 mg/kg, iv by HPLC-MS/MS analysis; format: ADME, organism-based; parameters: dose 10 mg/kg, route iv; details: in vivo
[22] = Resistance index, ratio of IC50 for human A549/TxR cells to IC50 for human A549 cells; format: functional
HT-29 [23] = assay: Induction of mitochondrial dysfunction in human HT-29 cells assessed as reduction in red fluorescence intensity measured after 24 hrs by JC-1 staining based JC-1 dye based confocal laser scanning microscopy; format: functional, cell-based; details: dose 25-100 nM, DDE = dose-dependent effect
[24] = Clearance in Sprague-Dawley rat at 10 mg/kg, iv by HPLC-MS/MS analysis; format: ADME, organism-based; details: in vivo
HT-29 [25] = assay: Cell cycle arrest in human HT-29 cells assessed as cell accumulation at G2/M phase at 100 nM measured after 24 hrs by propidium iodide staining based flow cytometry (reference value: 20.9%); format: functional
A549 [26] = assay: Antimigratory activity against human A549 cells assessed as reduction in number of penetrated cells at 12.5 to 100 nM measured after 24 hrs by crystal violet staining based transwell assay; format: functional, cell-based; details: dose 12.5-100 nM
[27] = Toxicity in human HT-29 cells xenografted BALB/c nude mouse assessed as effect on heart at 5 to 10 mg/kg, ip administered as 2 days interval for 3 weeks and measured 3 weeks post-initial dosing by H and E staining based histopathological analysis; format: organism-based; details: in vivo, 504 h, dose 5-10 mg/kg
HT-29 [28] = assay: Induction of apoptosis in human HT-29 cells assessed as up regulation of phosphorylated Bcl-2 expression at 25 to 100 nM measured after 24 hrs by Western blot analysis; format: functional, cell-based; details: dose 25-100 nM
HT-29 [29] = assay: Induction of apoptosis in human HT-29 cells assessed as increase in cleaved caspase-9 expression at 25 to 100 nM measured after 24 hrs by Western blot analysis; format: functional, cell-based; details: dose 25-100 nM
HT-29 [30] = assay: Induction of apoptosis in human HT-29 cells assessed as increase in PARP expression at 25 to 100 nM measured after 24 hrs by Western blot analysis; format: functional, cell-based; details: dose 25-100 nM
[31] = Toxicity in human HT-29 cells xenografted BALB/c nude mouse assessed as body weight loss at 5 to 10 mg/kg, ip administered as 2 days interval for 3 weeks and measured 3 times a week during compound dosing; format: organism-based; details: in vivo, 504 h, dose 5-10 mg/kg
Sus scrofa = species: Sus scrofa; assay: (§1) Inhibition of porcine brain tubulin polymerization measured at 1 min interval for 60 mins by fluorescence assay; details: dose 1.25-5 µM, DDE = dose-dependent effect
[32] = as §1; parameters: species or system Sus scrofa
HT-29 [33] = assay: Antitumor activity against human HT-29 cells xenografted in ip dosed BALB/c nude mouse assessed as tumor growth inhibition administered at 2 days interval for 3 weeks; format: functional, organism-based; details: DDE = dose-dependent effect

COC(=O)c1cc2c(cc1Nc1cc(OC)c(OC)c(OC)c1)OCCO2
Activity (HT-29 [1]): Active | Activity (HT-29 [2]): Active | Activity [3]: Non-Toxic | Activity (HT-29 [4]): Active | IC50 [5]: 180 nM | inhibition (Tubulin (Homo sapiens) [6]): 93.5% | inhibition (Tubulin (Homo sapiens) [7]): Active | Activity (HT-29 [8]): Active | Activity (HT-29 [9]): Dde | IC50 (MDA-MB-231): 100 nM | Activity (A549 [10]): Dde | Activity (HT-29 [11]): Active | Ratio IC50 [12]: 1.3 | inhibition at 0.1 µM (HT-29 [13]): 100% | t1/2 [14]: 1.73 h | Activity (HT-29 [15]): Dde | inhibition (Tubulin (Homo sapiens) [16]): Active | Activity [17]: Non-Toxic | Activity [18]: Non-Toxic | Activity [19]: Non-Toxic | Activity (HT-29 [20]): Dde | AUC [21]: 5670 µg/L.hr | Ratio IC50 [22]: 1.2 | Activity (HT-29 [23]): Dde | CL [24]: 29.3 mL/min/kg | Activity (HT-29 [25]): 87.5% | Activity (A549 [26]): Active | Activity [27]: Non-Toxic | Activity (HT-29 [28]): Active | Activity (HT-29 [29]): Active | Activity (HT-29 [30]): Active | Activity [31]: Non-Toxic | inhibition (Sus scrofa): Dde | IC50 [32]: 1090 nM | TGI (HT-29 [33]): Dde
